This assay deals with NCI-H292 cells. The assay is described as follows: MUC5AC mRNA and protein in NCI-H292 cells incubated with cigarette smoke solution (Example 7). The format is cell-based, human. The settings on record: within 6 hours, increased at 12 hours. How it is done:
NCI-H292 cells, a human pulmonary mucoepidermoid carcinoma cell line, were grown in RPMI 1640 medium containing 10% fetal bovine serum, penicillin (100 U/ml), streptomycin (100 μg/ml) and Hepes (25 mM) at 37° C. in a humidified 5% CO2 water-jacketed incubator. Either 6-well culture plates or 8-chamber slides were used to culture the cells. When confluent, cells were incubated for 1 hour with cigarette smoke solution. The cells were then washed and incubated with fresh medium alone. Experiments were terminated at preselected times (for mRNA, 6 hours and 12 hours; for protein, 24 hours). As controls, cells were incubated with medium alone for same time periods. […] The effects of a selective inhibitor of platelet-derived growth factor receptor tyrosine kinase (tyrphostin AG1295, 100 μM, Calbiochem), and a negative control for tyrphostins (tyrphostin A1, 100 μM, Calbiochem) were also examined. The role of reactive oxygen species was examined using a scavenger of oxygen free radicals DMSO (1%, Sigma), or superoxide dismutase (SOD, 300 U/ml, Sigma).
In situ hybridization was performed using a human EGFR probe, which contains a 350-bp cDNA fragment of the human EGFR gene (pTRI-EGFR-human probe template, Ambion, Austin, Tex.) and a human MUC5AC probe, which contains a 298-bp cDNA fragment of the human MUC5AC gene, The 350-bp cDNA human EGFR was subcloned into pBluescript II SK-vector at Kpn I and EcoR I sites. This pBluescript was used to generate human EGFR antisense and sense probes. Hybridization was performed as described previously. Lou et al. (1998) Am. J. Respir. Crit. Care Med. 157:1927-1934. In brief, the cells grown on the 8-chamber slides were fixed in 4% paraformaldehyde, rehydrated in 0.5×SSC, and then acetylated in triethanolamine and acetic anhydride. Hybridization was carried out with 2500-4000 cpm/μl of antisense or sense probe in 50% deionized formamide, 0.3 M NaCl, 20 mM Tris, 5 mM EDTA, 1× Denhardt's solution, 20 mM dithiothreitol, 10% dextran sulfate, 0.5 mg/ml yeast tRNA, and 0.5 mg/ml sonicated salmon sperm DNA at 58° overnight. Posthybridization treatment consisted of washes with 2×SSC, 1 mM EDTA, 10 mM β-mercaptoethanol at room temperature, incubation with RNase solution (20 μg/ml) for 30 min at room temperature, and further washes in 0.1×SSC, 1 mM EDTA, 10 mM β-mercaptoethanol at 55° C. for 2 hours and then in 0.5×SSC at room temperature for 20 minutes. Specimens were dehydrated, air-dried, and covered with Kodak NBT nuclear track emulsion (Eastman Kodak, Rochester, N.Y.) for autoradiography. After exposure for 7 to 21 days at 4° C., the slides were developed, fixed, and counterstained with hematoxylin.
MUC5AC protein was measured as described previously. Takeyama et al. (1999) Proc. Natl. Acad. Sci. USA 96:3081-3086. In brief, cell lysates were prepared with PBS at multiple dilutions, and 50 μl of each sample was incubated with bicarbonate-carbonate buffer (50 μl) at 40° C. in a 96-well plate (Maxisorp Nunc, Fisher Scientific, Santa Clara, Calif.), until dry. Plates were washed three times with PBS and blocked with 2% bovine serum albumin, fraction V (Sigma) for 1 hour at room temperature. Plates were again washed three times with PBS and then incubated with 50 μl of MUC5AC mAb (1:1 00) that was diluted with PBS containing 0.05% Tween 20. After 1 hour, the wells were washed three times with PBS, and 100 μl horseradish peroxidase-goat anti-mouse IgG conjugate (1:10,000) was dispensed into each well. After 1 hour, plates were washed three times with PBS. Color reaction was developed with 3,3′,5,5′-tetramethylbenzidine (TMB) peroxidase solution (Kirkegaard & Perry Laboratories, Gaithersburg, Md.) and stopped with 2N H2S04. Absorbance was read at 450 nm.

Turning to “TGFα: transforming growth factor alpha, EGF-R ligand (recombinant human; rat synthetic in vivo)”, the “MUC5AC mRNA expression” value is “increased”.

(Values after US7531500B2, “Preventing airway mucus production by administration of EGF-R antagonists” (The Regents of the University of California, priority 1998, dated 2009).)
